Results taken from patent publication US6200993A, “Heterosubstituted pyridine derivatives as PDE4 inhibitors” (Merck Frosst Canada & Co., priority 2000, dated 2001).

Target: T1, GST-Met 248 PDE 4a (purified GST fusion protein of the human recombinant phosphodiesterase IVa (met-248)) (Homo sapiens, UniProt P27815)
T1 construct: phosphodiesterase IVa (met-248); made in house; host or cells: Sf-9 insect cells (baculovirus)
Assay: SPA Based PDE Activity Assay (hydrolysis of cAMP to AMP)
Type: biochemical
Conditions: 100 nM cAMP; baculovirus/Sf-9 expressed enzyme; ten point titration
Protocol: SPA Based PDE Activity Assay Protocol
Compounds which inhibit the hydrolysis of cAMP to AMP by the type-IV cAMP-specific phosphodiesterases were screened in 96-well plate format as follows:
In a 96 well-plate at 30° C. was added the test compound (dissolved in 2 μl DMSO), […] of substrate buffer containing [2,8-^3 H] adenosine 3',5'-cyclic phosphate (cAMP, 100 nM to 50 μM), 10 mM MgCl2, 1 mM EDTA, 50 mM Tris, pH 7.5. The reaction was initiated by the addition of […] of human recombinant PDE-IV (the amount was controlled so that ~10% product was formed in 10 min.). The reaction was stopped after 10 min. by the addition of 1 mg of PDE-SPA beads (Amersham). The product AMP generated was quantified on a Microbeta 96-well plate counter. The signal in the absence of enzyme was defined as the background. 100% activity was defined as the signal detected in the presence of enzyme and DMSO with the background subtracted. Percentage of inhibition was calculated accordingly. IC50 value was approximated with a non-linear regression fit using the standard 4-parameter/multiple binding sites equation from a ten point titration.
IC50 values shown in Table 7 were determined with 100 nM cAMP using the purified GST fusion protein of the human recombinant phosphodiesterase IVa (met-248) produced from a baculovirus/Sf-9 expression system.

T1 sequence (P27815 248-886 limits assumed): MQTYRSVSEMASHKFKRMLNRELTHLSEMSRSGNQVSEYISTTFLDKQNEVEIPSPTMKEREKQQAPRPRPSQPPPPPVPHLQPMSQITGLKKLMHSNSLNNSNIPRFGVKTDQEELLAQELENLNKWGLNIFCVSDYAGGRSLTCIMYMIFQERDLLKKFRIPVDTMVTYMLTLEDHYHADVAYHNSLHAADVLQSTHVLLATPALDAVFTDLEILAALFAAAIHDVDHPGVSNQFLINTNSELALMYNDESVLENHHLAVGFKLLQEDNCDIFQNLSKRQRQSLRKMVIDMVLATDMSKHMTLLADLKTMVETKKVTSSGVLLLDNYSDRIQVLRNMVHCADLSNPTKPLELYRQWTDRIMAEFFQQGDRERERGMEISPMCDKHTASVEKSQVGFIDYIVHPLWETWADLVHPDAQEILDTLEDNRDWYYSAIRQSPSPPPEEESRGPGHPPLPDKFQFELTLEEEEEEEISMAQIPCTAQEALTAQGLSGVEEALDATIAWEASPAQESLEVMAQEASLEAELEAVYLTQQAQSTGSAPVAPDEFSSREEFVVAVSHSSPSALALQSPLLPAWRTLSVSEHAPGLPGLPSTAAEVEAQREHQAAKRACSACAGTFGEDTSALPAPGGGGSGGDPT

Structure (SMILES) | IC50
O=C(c1ccc(F)cc1)N(C(=O)c1ccc(F)cc1)c1ccc(C(Cc2cc[n+]([O-])cc2)c2ccc(OC(F)F)c(OC(F)F)c2)cn1 (single isomer, unassigned; enantiomer-2) [Example 99, (ENANTIOMER-2)-4-{2-[3,4-BIS(DIFLUOROMETHOXY)PHENYL]-2-{6-[N,N-DI(4-FLUOROBENZAMIDE)]3-PYRIDYL}ETHYL}PYRIDINE-N-OXIDE] | 0.84 nM
COc1ccc(N(C)c2ccc(C(Cc3cc[n+]([O-])cc3)c3ccc(OC(F)F)c(OC(F)F)c3)cn2)cc1 (racemic) [Example 69, 4-{2-[3,4-Bis(difluoromethoxy)phenyl]-2-[6-(N-methyl-N-4-methoxyphenylamino)3-pyridyl]ethyl}pyridine-N-oxide] | 3.1 nM

Continued, values first:

IC50 | Structure (SMILES)
1.63 nM | CC(C)(Nc1ccc(C(Cc2cc[n+]([O-])cc2)c2ccc(OC(F)F)c(OC(F)F)c2)cn1)c1ccccc1 (racemic) [Example 11, 4-{2-[3,4-Bis(difluoromethoxy)phenyl]-2-[6-(1-methyl-1-phenylethylamino)3-pyridyl]ethyl}pyridine-N-oxide]
0.75 nM | FC(F)Oc1ccc(C(Cc2ccncc2)c2ccc(NCc3ccccc3)nc2)cc1OC(F)F (racemic) [Example 1, 4-{2-[3,4-Bis(difluoromethoxy)phenyl]-2-[6-(benzylamino)3-pyridyl]ethyl}pyridine]
2.84 nM | CN(Cc1ccccc1)c1ccc(C(Cc2ccncc2)c2ccc(OC(F)F)c(OC(F)F)c2)cn1 (racemic) [Example 54, 4-{2-[3,4-BIS(DIFLUOROMETHOXY)PHENYL]-2-[6-(N-METHYL-N-BENZYLAMINO)3-PYRIDYL]ETHYL}PYRIDINE]
